In article PMC12722308, “A phase 1 study of orally administered 5-fluoro-2’-deoxycytidine with tetrahydrouridine in patients with refractory solid tumors” (Cancer Chemotherapy and Pharmacology, 2025):

What was measured:
[1] = Urinary excretion by LC-MS/MS; type: in vivo, human
Experimental: Blood specimens for PK analysis were collected on Cycle 1 Day 1 (C1D1) prior to THU administration and then at 15, 30, and 45 min and 1, 2, 3, 4, 5, and 6 h after THU administration, as well as on C1D2 and C1D3 prior to and 2 h after THU administration. Urine specimens for PK analysis were collected on C1D1 prior to treatment and then at every void from 0 to 24 h after THU administration. All specimens for PK analysis were processed and analyzed by LC-MS/MS as described previously, and Phoenix WinNonlin software was used for data analysis.

[2] = system: p16-expressing vimentin-positive (V+) CTCs; set-up: method as in PMID 32314030; settings: intravenously administered FdCyd; 6 of 12; cited from earlier work
[3] = cited from earlier work
[4] = system: p16-expressing cytokeratin-positive (CK+) CTCs; assay: CellSearch analysis of CTC p16 expression, CK+ CTCs; type: in vivo, human; settings: 23 of 30 evaluable patients; oral FdCyd + THU
Experimental: (§1) Each blood specimen for CTC analysis (7.5 mL) was collected into a 10-mL CellSave preservative tube (Menarini Silicon Biosystems). Specimens were collected pre-treatment and then 6 h after THU administration on C1D1; prior to THU administration on […] and either C1D8 or […] (at the end of the first round of drug administration); on day 1 of cycle 2 and all subsequent cycles; and optionally at time of progression. Blood sample collection for CTC analysis was performed relative to the morning dose of THU for patients on the BID dose levels (DL10-11). CTC samples were processed and analyzed for p16, cytokeratin, and vimentin as described previously. Serial baseline blood specimens (C1D1 pre, C1D1 post, and […]) were obtained in light of baseline variability in CTC counts and p16 expression, and patients were considered assessable for cytokeratin-positive (CK^+) CTC p16 response if at least one of these baseline specimens (i.e., C1D1 pre, C1D1 post, and/or […]) and at least one post-treatment specimen (collected C2D1 or later) each contained ≥ 6 CTCs, as described. For patients with multiple baseline specimens, the specimen with the highest frequency of p16-positive CTCs was considered “baseline,” as described.

CDKN2A = assay: Tumor CDKN2A promoter methylation from genome-wide methylation sequencing; type: in vivo, human; settings: of 6 expansion cohort patients with both CDKN2A and p16 IHC data
Experimental: Tumor biopsy cores collected at baseline and C1W3 underwent nucleic acid extraction using the Qiagen AllPrep FFPE Nucleic acid Extraction kit and QiaCube automated platform. Extractions were performed on 1–2 biopsy cores per patient per time point; for specimens with low tumor content, tumor microdissection was performed prior to extraction. Genome-wide DNA methylation sequencing on the isolated DNA was performed by Zymo Research using Methyl-MiniSeq Genome-Wide Bisulfite Sequencing methodology. Sequence reads from bisulfite-treated Classic RRBS libraries were identified using standard Illumina base calling software. Raw FASTQ files were trimmed of adapter, filled-in nucleotides, and low-quality base calls using TrimGalore 0.6.4. […] Methylated and unmethylated read totals for each CpG site were called using Bismark Methylation Extractor. The methylation level of each sampled cytosine was estimated as the number of reads reporting a C, divided by the total number of reads reporting a C or T.
All statistical analyses were performed in R. Differentially methylated CpG sites (DMCs)—both hypo- and hyper-methylated—were identified with the R package DSS [14] using the two-sided Wald test for beta-binomial distributions with smoothing step as recommended. […] Regions with many significant DMCs were detected as differentially methylated regions (DMRs) using DSS function callDMR. […]

[5] = Phase 1 dose escalation: adverse events (CTCAE v4.0), DLT, MTD/RP2D; type: in vivo, human; settings: orally once daily with 3000 mg THU on days 1–6 and 8–13 of each 21-day cycle (dose level 8)
Experimental: FdCyd and THU were supplied by the NCI Division of Cancer Treatment and Diagnosis. Patients were administered both drugs orally in 21-day cycles, and dose escalation proceeded according to a traditional 3 + 3 design as per the dose escalation schema shown in Supplementary Table S1. […] Patients maintained a study diary to note any side effects or concurrent medications. The NCI Common Terminology Criteria for Adverse Events version 4.0 was used to grade adverse events. Tumor response was assessed by radiography at baseline and every 2 cycles thereafter and evaluated per RECIST version 1.1 [11]. Following determination of the maximum tolerated dose (MTD)/recommended phase 2 dose (RP2D), an additional 13 patients were enrolled on a RP2D expansion cohort for assessments of pharmacodynamic biomarkers in baseline and on-treatment tumor biopsies.
DLTs were defined as toxicities that were at least possibly related to FdCyd or THU within the first cycle of treatment and met one of the following criteria: grade ≥ 3 non-hematological toxicity (including grade 3 nausea, vomiting, or diarrhea only if refractory to standard supportive care; grade 3 electrolyte toxicities only if unable to be corrected to ≤ grade 1 within 24 h; and tumor pain only if refractory to analgesics); grade 4 thrombocytopenia; or grade 4 neutropenia lasting ≥ 5 days or febrile neutropenia. […]

[6] = system: p16-expressing vimentin-positive (V+) CTCs; assay: CellSearch analysis of CTC p16 expression, V+ CTCs; type: in vivo, human; settings: 2 of the 22 evaluable patients; oral FdCyd + THU
Experimental: as §1

DNA methylation = system: DNA methylation; set-up: method as in PMID 2425957; settings: preclinical data; 1 µM = 245 ng/mL; cited from earlier work

Nc1nc(=O)n([C@H]2C[C@H](O)[C@@H](CO)O2)cc1F [FdCyd, 5-fluoro-2’-deoxycytidine]
FdCyd urinary excretion over 0-24 hours of day 1 ([1]; All FdCyd doses + THU 3000 mg, N=6, geom. mean (geom. SD)): 0.083 (2.2) % dose | FdCyd urinary excretion over 0-24 hours of day 1 ([1]; All FdCyd doses + THU 6000 mg, N=3, geom. mean (geom. SD)): 0.11 (2.6) % dose | FdCyd urinary excretion over 0-24 hours of day 1 ([1]; DL5-9: FdCyd 160 mg + THU 3000 mg, N=6, geom. mean (geom. SD)): 0.083 (2.2) % dose | FdCyd urinary excretion over 0-24 hours of day 1 ([1]; DL10: FdCyd 60 mg + THU 6000 mg, N=2, geom. mean (geom. SD)): 0.15 (3.2) % dose | FdCyd urinary excretion over 0-24 hours of day 1 ([1]; DL11: FdCyd 80 mg + THU 6000 mg, N=1): 0.058 (-) % dose | Patients with increases in p16-expressing V+ CTCs [2]: 50% | FdCyd bioavailability, previously established [3]: 10% | FdCyd clearance, previous reports ([3]; intravenously administered FdCyd with THU, ref previous reports): 142 mL/min/m^2 | Patients with a treatment-associated increase in the proportion of p16+CK+ CTCs [4]: 77% | Patients with treatment-associated decreases in tumor CDKN2A methylation (CDKN2A): Five | Maximum tolerated dose / RP2D, FdCyd dose [5]: 160 mg | Patients with increases in the proportion of p16-expressing V+ CTCs [6]: 9% | FdCyd concentration giving inhibition of DNA methylation in vitro (DNA methylation): ≥ 1 µM
